Measurements reported in US11260042B2, “Pharmaceutical combination for the treatment of cancer” (ABILITY PHARMACEUTICALS S.L., priority 2017, dated 2022).
Where two headings read alike, the source gives them in different places.

Experiments:
[1] = type: in vivo
Description: Methods: Forty-five female CD-1 mice were distributed by means of the body weight stratification method into nine experimental groups (A-I) (5 animals for group) that differed in the treatment or in the day on which the reference items (paclitaxel and carboplatin) were administered.
The table below summarizes the treatment groups. Please note that the same administration schedule and doses were administered as in the previous efficacy studies.
The safety assessment relied on observed mortality, local and systemic clinical signs, body weight and food consumption recorded throughout the whole study. In addition, clinical pathology determinations (biochemistry and hematology) were performed before sacrifice in all animals. At the end of the observation period (one day after the last administration), all surviving animals were sacrificed and subjected to a gross necropsy. Moreover, the safety assessment was also based on the weight of selected target organs collected at sacrifice.

[2] = tested on: SH-SY5Y human neuroblastoma xenograft; type: in vivo, Nu/nu female mice
Description: Methods: Immunodeficient athymic NMRI-Foxn1^nu/Foxn1^nu nude mice were subcutaneously injected with SH-SY5Y cells. This cell line was genetically modified to express luciferase, which would allow the in vivo study not only of tumor size, but also of metastasis formation. When tumors reached an average volume of 80 mm^3, mice were randomly distributed into different treatment groups. ABTL0812 was administered orally at 120 mg/kg daily. In parallel we used cisplatin, a drug included in the chemotherapy induction phase for the treatment of neuroblastoma. Cisplatin was administered at 2 mg/kg i.p. twice a week (Wang et al. 2010). Additionally, we studied the effect of combining ABTL0812 with cisplatin at the indicated doses.
C. Metastasis formation. In order to investigate the effect of ABTL0812 in metastasis formation we used a SH-SY5Y cell line transduced with a luciferase reporter vector. As described above, mice bearing xenograft tumors derived from this cell line were treated with ABTL0812, cisplatin or the combination of both drugs. After ten days of treatment animals were sacrificed and metastasis were assessed ex vivo by monitoring luciferase-expressing cells in lung and liver.

[3] = tested on: A549 human lung adenocarcinoma xenograft; type: in vivo; details: ABTL0812 30 mg/kg/day oral 5 times a week; docetaxel 5 mg/kg i.p. once a week
Description: Methods: Mice were injected with 5×10^6 A549 cells in each flank to induce tumor formation. […] ABTL0812 was administered by the oral route at 30 mg/kg/day, 5 times a week. Docetaxel 5 mg/kg was administered intra-peritoneally once a week (Coxon et al. 2012). Tumor volume and body weight were monitorized 3 times a week.

[4] = tested on: A549 (human lung carcinoma) cell line; assay: Cell viability (MTT) of ABTL0812 in combination with docetaxel in lung cancer; type: cell-based; details: Homo sapiens, 72 h, A549, three days, FBS 0.5%, single agent
Description: Methods: A549 cells were incubated with increasing concentrations of ABTL0812 (3-300 μM), docetaxel (0.01-100 μM), or a combination of both (subIC50, i.e., 20 μM fixed concentration of ABTL812 and 0.01-100 μM docetaxel) for three days (FBS 0.5%). […] In the denominator, (Dx)1 is for D1“alone” that inhibits a system x %, and (Dx)2 is for D2“alone” that inhibits a system x %.

[5] = tested on: MiaPaca2 (human pancreatic carcinoma); assay: Cell viability (MTT) of ABTL0812 alone or with gemcitabine in pancreatic cancer; type: cell-based; details: Homo sapiens, MIA PaCa-2; MiaPaca2, 72h, 0.5% FBS, MTT, single agent
Description: Methods: MiaPaca2 cells were seeded in 24-well plates together with gemcitabine (0.01-100 μM), ABTL812 (3-300 μM), or a combination of both (subIC50, i.e., 25 μM fixed concentration of ABTL0812 with 0.01-100 μM gemcitabine) and left in the incubator for 72h (0.5% FBS). Cell viability was studied by the MTT assay and several parameters were determined to evaluate a possible synergism. First the IC50 for each drug alone or the combination was calculated. Then, synergism (CI) was calculated as described above.

[6] = tested on: MiaPaca2 human pancreatic cancer xenograft; assay: Human pancreatic xenograft (MiaPaca-2), gemcitabine and Nab-paclitaxel/gemcitabine; type: in vivo, Athymic Nude-Foxn1nu female mice; details: ABTL0812 120 mg/kg oral 5 times a week; gemcitabine 60 mg/kg, Nab-Paclitaxel 5 mg/kg i.p. 2 times a week (suboptimal chemotherapy dose)
Description: It is important to change the site of injection to avoid intestinal necrosis and keep Nab-Paclitaxel and gemcitabine injections as far as possible one from the other in mice abdomen. • Gemcitabine+ABTL0812 (n=10): treated orally with 120 mg/kg of ABTL0812 in 200 μl of distilled water+5% glycerol, 5 times a week and with 60 mg/kg of gemcitabine administered i.p in 100 μl of sterile water, 2 times a week. ABTL0812 was always administered before chemotherapy with the aim of reducing the stress derived from the i.p. injection, that is normally applied as the last administration. • Gemcitabine+Nab-Paclitaxel+ABTL0812 (n=8): treated orally with 120 mg/kg of ABTL0812 in 200 μl of distilled water+5% glycerol, 5 times a week, with 60 mg/kg of gemcitabine administered i.p. in 100 μl of sterile water, 2 times a week and with 5 mg/kg of Nab-Paclitaxel administered i.p. in 230 μl of 0.9% NaCl solution 2 times a week. As in the gemcitabine+Nab-Paclitaxel group, injections where administered in separated areas of the abdomen. […]
Treatment efficacy was assessed by measuring tumor volume three days a week. Additionally, total body weight was monitored three days a week to test the toxicity associated with the treatments in addition to visual examination of signs indicative of clinicopathological symptoms. […]

H157 cells = assay: Cell viability (MTT) of ABTL0812 in combination with paclitaxel, H157; type: cell-based, human; details: Homo sapiens, NCI-H157; H157, 48 hours, 0.1% FBS, single agent
Description: (§1) Methods: A549 cells were incubated with increasing concentrations of ABTL0812 (3-300 μM), paclitaxel (0.003-1 μM), or a combination of both using subIC50 fixed concentration of ABTL0812 and 0.003-1 μM paclitaxel for 72 hours in DMEM with 0.1% FBS. H157, H1957 and HTB-812 cells were incubated with increasing concentrations of paclitaxel (0.001-10 μM) alone and in combination with subIC50 fixed concentration of ABTL0812 for 48 hours in DMEM with 0.1% FBS. Cell viability was evaluated in all cases by MTT assay and IC50's were calculated for paclitaxel and the combination. The concentrations of the combinations for the different cell lines were:
(§2) Finally, the Combination Index (CI), as described in the previous section, was calculated for the values of paclitaxel IC50.

[7] = tested on: MDB-DA-231 (human triple negative breast cancer); assay: Cell viability (MTT) of ABTL0812 alone or with paclitaxel in breast cancer; type: cell-based; details: Homo sapiens; MDB-DA-231, 48h, 0.5% FBS, MTT, single agent
Description: Methods: MDB-DA-231 cells were seeded in 24-well plates together with increasing concentration of paclitaxel (1-100 nM) in the presence of 5, 10 and 20 μM of ABTL0812 (all doses below to an IC25) for 48h (0.5% FBS). Cell viability was studied by the MTT assay and several parameters were determined to evaluate a possible synergism. First the IC50 for each drug alone or the combination was calculated.

HTB-812 cells = assay: Cell viability (MTT) of ABTL0812 in combination with paclitaxel, HTB-812; type: cell-based, human; details: Homo sapiens; HTB-812, 48 hours, 0.1% FBS, single agent
Description: as §1, §2

H1957 cells = assay: Cell viability (MTT) of ABTL0812 in combination with paclitaxel, H1957; type: cell-based, human; details: Homo sapiens; H1957, 48 hours, 0.1% FBS, single agent
Description: as §1, §2

[8] = tested on: LA1-5S neuroblastoma cell line; assay: Cell viability (crystal violet) of ABTL0812 with retinoic acid, LA1-5S; details: 24h
Description: (§3) Methods: LA1-5S and SK-N-BE(2) cells were incubated with a subIC50 fixed concentration of ABTL0812 (30 μM), increasing concentrations of 10 μM, 20 μM and 30 μM of retinoic acid or a combination of both. […] Cells were treated for 24h in IMDM with 0.5% FBS. Cell viability was evaluated in all cases by crystal violet assay. Different doses were assessed in six replicates and the results shown are the average of two independent experiments. Statistical analyses were performed according to the T-Test principle with GraphPad Prism® 5.0 software (* p<0.05; ** p<0.01; *** p<0.001)..

[9] = tested on: SK-N-BE(2) human neuroblastoma cell line; assay: Cell viability (crystal violet) of ABTL0812 with retinoic acid, SK-N-BE(2); details: 24h
Description: as §3

N.N.O=C([O-])C1(C(=O)[O-])CCC1.[Pt+2] [Carboplatin]
Body Weight Gain D 1-4 ([1]; ABTL0812 120 mg/kg p.o. days 2-6, 9-13, paclitaxel 15, carboplatin 50 mg/kg i.p. D 2/9): -0.626 g
Biochemistry Creat ([1]; PTX/CP on D 2/9): 8.83 µmol/L
Biochemistry Triglyc ([1]; PTX/CP on D 2/9): 1.35 mmol/L
Biochemistry Urea ([1]; PTX/CP on D 2/9): 9.50 mmol/L
Body Weight Gain D 8-11 ([1]; PTX/CP on D 2/9): -0.450 g
Hematology PLT ([1]; PTX/CP on D 2/9): 790 ×10^3/μL
Hematology RBC ([1]; PTX/CP on D 2/9): 8.40 ×10^6/μL
Hematology WBC ([1]; PTX/CP on D 2/9): 7.09 ×10^3/μL

N.N.[Cl][Pt][Cl] [Cisplatin, reference compound]
Hematocrit ([2]; mouse, in vivo): 37.3 ± 2.7%
RBC ([2]; mouse, in vivo): 6.8 ± 0.9 ×10^6/μL
WBC ([2]; mouse, in vivo): 3.0 ± 0.6 ×10^3/μL
hematological safety ([2]; mouse, in vivo): induced anemia and reduced white blood cell count
metastasis formation in lung and liver ([2]; ten days of treatment, luciferase-expressing cells ex vivo): no significant effect in inhibiting metastasis formation

CC(=O)O[C@@]12CO[C@@H]1C[C@H](O)[C@@]1(C)C(=O)[C@H](O)C3=C(C)[C@@H](OC(=O)[C@H](O)[C@@H](NC(=O)OC(C)(C)C)c4ccccc4)C[C@@](O)([C@@H](OC(=O)c4ccccc4)[C@H]21)C3(C)C [Docetaxel, reference compound]
tumor volume [3]: similarly reduced tumor volume
IC50 [4]: 1.7 µM

Nc1ccn([C@@H]2O[C@H](CO)[C@@H](O)C2(F)F)c(=O)n1 [Gemcitabine, reference compound]
IC50 [5]: 10.2 µM
tumor volume [6]: do not show significant difference in tumor volume compared with vehicle group

CC(=O)O[C@H]1C(=O)[C@@]2(C)[C@H]([C@H](OC(=O)c3ccccc3)[C@]3(O)C[C@H](OC(=O)[C@H](O)[C@@H](NC(=O)c4ccccc4)c4ccccc4)C(C)=C1C3(C)C)[C@]1(OC(C)=O)CO[C@@H]1C[C@@H]2O [Paclitaxel]
IC50 (H157 cells): 4.19 µM
IC50 [7]: 0.0087 µM
IC50 (HTB-812 cells): 2.71 µM
Biochemistry Creat ([1]; mouse, in vivo): 9.74 µmol/L
Biochemistry Triglyc ([1]; mouse, in vivo): 1.31 mmol/L
Biochemistry Urea ([1]; mouse, in vivo): 9.50 mmol/L
Body Weight Gain D 8-11 ([1]; mouse, in vivo): 0.442 g
Hematology PLT ([1]; mouse, in vivo): 1378 ×10^3/μL
Hematology RBC ([1]; mouse, in vivo): 9.59 ×10^6/μL
Hematology WBC ([1]; mouse, in vivo): 6.28 ×10^3/μL
IC50 (H1957 cells): 3.68 µM

CC1=C(/C=C/C(C)=C/C=C/C(C)=C/C(=O)O)C(C)(C)CCC1 [retinoic acid]
cytotoxicity ([8]; LA1-5S, 30 μM ABTL0812, retinoic acid 10-30 μM): even lower
cell viability ([8]; LAI-5S cells, combination with low concentration of ABTL0812): 82.8%
cell viability ([9]; SK-N-BE(2) cells, combination with low concentration of ABTL0812): 70.4%
cytotoxicity ([9]; SK-N-BE(2), 30 μM ABTL0812, retinoic acid 10-30 μM): even lower
